Read-outs that look alike come from different tables or passages of the source.
Tests used:
[1] = target: T1, AEA-DA lipid probe targets in Neuro2a cells (Mus musculus, UniProt O08749)
T1 sequence (O08749 36-509): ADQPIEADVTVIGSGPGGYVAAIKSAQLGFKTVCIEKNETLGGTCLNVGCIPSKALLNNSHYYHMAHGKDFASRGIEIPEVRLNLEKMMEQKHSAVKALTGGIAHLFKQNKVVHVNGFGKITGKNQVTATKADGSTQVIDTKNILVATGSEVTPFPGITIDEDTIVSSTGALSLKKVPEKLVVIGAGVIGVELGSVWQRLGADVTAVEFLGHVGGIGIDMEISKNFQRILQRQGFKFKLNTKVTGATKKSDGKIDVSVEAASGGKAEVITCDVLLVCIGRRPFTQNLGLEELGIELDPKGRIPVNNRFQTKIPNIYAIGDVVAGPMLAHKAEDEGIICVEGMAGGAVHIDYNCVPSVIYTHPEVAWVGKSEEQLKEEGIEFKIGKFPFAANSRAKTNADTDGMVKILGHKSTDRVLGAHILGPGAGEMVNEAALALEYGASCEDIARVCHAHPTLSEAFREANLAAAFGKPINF

[2] = target: T2, AEA-DA lipid probe targets in Neuro2a cells (Mus musculus, UniProt P15626)
T2 sequence (P15626 1-218): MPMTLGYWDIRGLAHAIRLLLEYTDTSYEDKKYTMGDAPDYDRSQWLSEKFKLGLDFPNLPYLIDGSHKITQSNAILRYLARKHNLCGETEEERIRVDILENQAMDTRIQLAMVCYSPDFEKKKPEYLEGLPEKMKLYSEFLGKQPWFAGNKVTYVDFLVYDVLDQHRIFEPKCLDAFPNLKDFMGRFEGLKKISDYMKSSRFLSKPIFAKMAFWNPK

[3] = target: T3, AEA-DA lipid probe targets in Neuro2a cells (Mus musculus, UniProt Q8BMG8)
T3 sequence (Q8BMG8 1-316): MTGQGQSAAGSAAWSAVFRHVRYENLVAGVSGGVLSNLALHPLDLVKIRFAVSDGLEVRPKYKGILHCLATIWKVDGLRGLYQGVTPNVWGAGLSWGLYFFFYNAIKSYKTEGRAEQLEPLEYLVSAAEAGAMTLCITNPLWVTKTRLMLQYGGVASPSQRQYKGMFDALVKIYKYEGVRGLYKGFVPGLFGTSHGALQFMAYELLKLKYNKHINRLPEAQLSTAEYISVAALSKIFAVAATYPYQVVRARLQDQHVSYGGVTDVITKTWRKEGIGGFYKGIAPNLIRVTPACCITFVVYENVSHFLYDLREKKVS

[4] = target: T4, AEA-DA lipid probe targets in Neuro2a cells (Mus musculus, UniProt Q8K2C9)
T4 sequence (Q8K2C9 1-362): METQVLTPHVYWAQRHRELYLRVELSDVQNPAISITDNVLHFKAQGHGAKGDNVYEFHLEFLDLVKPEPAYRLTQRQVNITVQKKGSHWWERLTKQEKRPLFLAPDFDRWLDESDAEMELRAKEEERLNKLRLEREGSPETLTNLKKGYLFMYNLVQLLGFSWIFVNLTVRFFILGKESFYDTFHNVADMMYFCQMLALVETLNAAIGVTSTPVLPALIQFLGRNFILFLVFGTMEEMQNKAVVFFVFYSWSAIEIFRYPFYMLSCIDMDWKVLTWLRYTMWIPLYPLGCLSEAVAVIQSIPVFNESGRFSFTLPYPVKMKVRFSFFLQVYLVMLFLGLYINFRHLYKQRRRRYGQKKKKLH

[5] = target: T5, AEA-DA lipid probe targets in Neuro2a cells (Mus musculus, UniProt Q8VDP6)
T5 sequence (Q8VDP6 1-213): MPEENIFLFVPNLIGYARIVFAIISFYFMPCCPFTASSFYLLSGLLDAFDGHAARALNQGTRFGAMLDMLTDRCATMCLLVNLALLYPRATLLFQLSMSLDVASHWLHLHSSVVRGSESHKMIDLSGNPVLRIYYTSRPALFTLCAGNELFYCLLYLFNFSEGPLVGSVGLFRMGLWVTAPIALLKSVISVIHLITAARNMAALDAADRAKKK

[6] = target: T6, AEA-DA lipid probe targets in Neuro2a cells (Mus musculus, UniProt Q99P72)
T6 sequence (Q99P72 1-1162): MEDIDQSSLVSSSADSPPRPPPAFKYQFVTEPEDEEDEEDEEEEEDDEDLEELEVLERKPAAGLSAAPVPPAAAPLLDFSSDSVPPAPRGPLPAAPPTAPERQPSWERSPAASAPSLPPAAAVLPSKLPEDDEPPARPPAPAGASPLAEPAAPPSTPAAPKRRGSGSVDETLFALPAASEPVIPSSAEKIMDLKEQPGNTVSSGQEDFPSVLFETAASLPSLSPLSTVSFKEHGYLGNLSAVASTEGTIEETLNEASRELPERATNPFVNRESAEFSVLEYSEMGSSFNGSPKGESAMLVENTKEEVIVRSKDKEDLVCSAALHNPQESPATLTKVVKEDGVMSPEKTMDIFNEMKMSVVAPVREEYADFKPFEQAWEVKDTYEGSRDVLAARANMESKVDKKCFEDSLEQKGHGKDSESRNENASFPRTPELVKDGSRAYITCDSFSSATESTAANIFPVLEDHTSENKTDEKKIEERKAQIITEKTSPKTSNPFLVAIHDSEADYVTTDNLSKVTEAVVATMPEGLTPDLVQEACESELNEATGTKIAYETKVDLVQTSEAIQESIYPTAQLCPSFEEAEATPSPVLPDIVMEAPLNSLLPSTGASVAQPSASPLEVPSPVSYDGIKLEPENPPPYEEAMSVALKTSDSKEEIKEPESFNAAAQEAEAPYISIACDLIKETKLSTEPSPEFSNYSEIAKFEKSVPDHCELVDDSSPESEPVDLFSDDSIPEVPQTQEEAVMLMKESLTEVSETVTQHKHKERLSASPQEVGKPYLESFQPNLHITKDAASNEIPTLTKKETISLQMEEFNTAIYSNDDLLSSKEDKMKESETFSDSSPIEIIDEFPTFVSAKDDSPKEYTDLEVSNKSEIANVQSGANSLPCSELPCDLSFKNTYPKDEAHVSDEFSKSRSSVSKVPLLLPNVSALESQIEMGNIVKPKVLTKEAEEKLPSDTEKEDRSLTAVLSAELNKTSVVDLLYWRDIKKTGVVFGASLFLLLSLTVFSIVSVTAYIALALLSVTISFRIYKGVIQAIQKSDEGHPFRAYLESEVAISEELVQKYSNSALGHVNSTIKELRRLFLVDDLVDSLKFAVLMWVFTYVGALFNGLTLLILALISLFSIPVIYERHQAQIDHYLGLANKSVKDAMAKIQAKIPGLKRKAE

Compound | SILAC ratio Dld ([1]; competitor 25 μM) | SILAC ratio, Gstm2 ([2]; competitor 25 μM) | SILAC ratio, Slc25a32 ([3]; competitor 25 μM) | SILAC ratio ptplad1 ([4]; competitor 25 μM) | SILAC ratio, Cdipt ([5]; competitor 25 μM) | SILAC ratio, Rtn4 ([6]; competitor 25 μM) | further results
CCCCC/C=C\C/C=C\C/C=C\C/C=C\CCCC(=O)NCCO [AEA, anandamide, reference compound] |  |  |  |  |  |  | SILAC ratio Dld ([1]; competitor 200 μM): 1.1; SILAC ratio, Gstm2 ([2]; competitor 200 μM): 2.7; SILAC ratio, Slc25a32 ([3]; competitor 200 μM): 1.5; SILAC ratio ptplad1 ([4]; competitor 200 μM): 1.8; SILAC ratio, Cdipt ([5]; competitor 200 μM): 1.8; SILAC ratio, Rtn4 ([6]; competitor 200 μM): 1.8
O=C(/C=C/c1cccnc1)NCCCCC1CCN(C(=O)c2ccccc2)CC1 [FK-866, reference compound] | 1.1 | 1.5 | 1.1 | 1.2 | 1.1 | 1.1 | 
CN1CCN(C(=O)c2c(-c3ccccc3)c3cc([N+](=O)[O-])ccc3n2C)CC1 [KML110, (1-Methyl-5-nitro-3-phenyl-1H-indol-2-yl)(4-methylpiperazin-1-yl)methanone] | 1.3 |  | 1.5 | 1.7 | 0.9 | 1.4 | 
CN1CCN(C(=O)c2[nH]c3ccc([N+](=O)[O-])cc3c2-c2ccccc2)CC1 [MJN228, (4-Methylpiperazin-1-yl)(5-nitro-3-phenyl-1H-indol-2-yl)methanone] | 1.2 | 1.6 | 1.5 | 1.7 | 1.0 | 1.3 | SILAC ratio Dld ([1]; competitor 10 μM): 1.2; SILAC ratio Dld ([1]; competitor 50 μM): 1.2; SILAC ratio Dld ([1]; competitor 100 μM): 1.1; SILAC ratio, Gstm2 ([2]; competitor 10 μM): 1.6; SILAC ratio, Gstm2 ([2]; competitor 100 μM): 2.2; SILAC ratio, Slc25a32 ([3]; competitor 10 μM): 1.5; SILAC ratio, Slc25a32 ([3]; competitor 50 μM): 1.5; SILAC ratio, Slc25a32 ([3]; competitor 100 μM): 1.9; SILAC ratio ptplad1 ([4]; competitor 10 μM): 1.3; SILAC ratio ptplad1 ([4]; competitor 50 μM): 1.9; SILAC ratio ptplad1 ([4]; competitor 100 μM): 2.3; SILAC ratio, Cdipt ([5]; competitor 10 μM): 1.0; SILAC ratio, Cdipt ([5]; competitor 50 μM): 0.7; SILAC ratio, Cdipt ([5]; competitor 100 μM): 0.8; SILAC ratio, Rtn4 ([6]; competitor 10 μM): 1.0; SILAC ratio, Rtn4 ([6]; competitor 50 μM): 1.2; SILAC ratio, Rtn4 ([6]; competitor 100 μM): 1.4
C=CCN(C)CCCCCCOc1ccc(C(=O)c2ccc(Br)cc2)c(F)c1 [Ro 48-8071, reference compound] | 0.8 | 1.3 | 1.1 | 1.4 | 0.7 | 1.0 | 

Source: patent US10168342B2, “Lipid probes and uses thereof” (THE SCRIPPS RESEARCH INSTITUTE, priority 2015, dated 2019)
